Measured values as given in ChEMBL document CHEMBL1201862, “PubChem BioAssay data set” (2004).
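Cells were grown in 96-well plates and exposed to each compound for 48 hours at five concentrations; endpoints were interpolated linearly between bracketing concentrations, or set to the highest concentration if not reached. At the GI50, growth is halved.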 Calls of active or inactive are those of the source. Rule as the data show it: active = GI50 up to about 1.1 µM and inactive = higher.

Key:
Assay in all cases: growth of human tumour cells (NCI), 48 h
DU-145 = tested on: DU-145
EKVX = tested on: EKVX
PC-3 = tested on: PC-3
HT-29 = tested on: HT-29
U-251 = tested on: U-251
ACHN = tested on: ACHN
LOX IMVI = tested on: LOX IMVI
HCT-116 = tested on: HCT-116
MDA-N = tested on: MDA-N
T47D = tested on: T47D
IGROV-1 = tested on: IGROV-1
SR = tested on: SR
OVCAR-4 = tested on: OVCAR-4
SK-MEL-5 = tested on: SK-MEL-5
UACC-62 = tested on: UACC-62
M14 = tested on: M14
NCI/ADR-RES = tested on: NCI/ADR-RES
SK-OV-3 = tested on: SK-OV-3
HCC 2998 = tested on: HCC 2998

Compound | GI50 (DU-145) | GI50 (EKVX) | GI50 (PC-3) | GI50 (HT-29) | GI50 (U-251) | GI50 (ACHN) | GI50 (LOX IMVI) | GI50 (HCT-116) | GI50 (MDA-N) | GI50 (T47D) | GI50 (IGROV-1) | GI50 (SR) | GI50 (OVCAR-4) | GI50 (SK-MEL-5) | GI50 (UACC-62) | GI50 (M14) | GI50 (NCI/ADR-RES) | GI50 (SK-OV-3) | GI50 (HCC 2998)
COc1ccc(/C=C/c2cnc3ccccc3n2)cc1OC | > 100 µM (inactive) | 63.1 µM (inactive) | 33.1 µM (inactive) | 36.1 µM (inactive) | 80.2 µM (inactive) | > 100 µM (inactive) | 83.8 µM (inactive) | 47.2 µM (inactive) | 59 µM (inactive) | 31 µM (inactive) | > 100 µM (inactive) | > 100 µM (inactive) | 34.8 µM (inactive) | 49.3 µM (inactive) | 77.3 µM (inactive) | 75.7 µM (inactive) | 38.2 µM (inactive) | 75.7 µM (inactive) | –
CN(N=O)N1C(=O)SCC(c2ccccc2)(c2ccccc2)C1=O | 91 µM (inactive) | 34.7 µM (inactive) | 42.4 µM (inactive) | 33.3 µM (inactive) | 28.4 µM (inactive) | 37.2 µM (inactive) | 30 µM (inactive) | 40.4 µM (inactive) | 28.4 µM (inactive) | 67.8 µM (inactive) | – | 37.5 µM (inactive) | – | 37.8 µM (inactive) | 37.8 µM (inactive) | 37.5 µM (inactive) | 34.4 µM (inactive) | 25.2 µM (inactive) | 89.1 µM (inactive)
Cc1ccc(S(=O)(=O)N/N=C2/C3C(CC2(C)C)C2(C)CCCC3(C)C2O)cc1 (stereo not drawn) | 39.1 µM (inactive) | 45.7 µM (inactive) | 9.59 µM (inactive) | 20.1 µM (inactive) | 16.3 µM (inactive) | > 10 µM (inactive) | 13.4 µM (inactive) | 18.7 µM (inactive) | 20.1 µM (inactive) | 18.2 µM (inactive) | 25 µM (inactive) | 20.7 µM (inactive) | 19.1 µM (inactive) | 15.5 µM (inactive) | 14.8 µM (inactive) | 22.9 µM (inactive) | 21.2 µM (inactive) | 20.9 µM (inactive) | –
Cc1nn(C(=O)Cc2ccccc2)c2c1C(c1ccc(O)cc1O)SC(=N)N2 (stereo not drawn) | > 100 µM (inactive) | > 100 µM (inactive) | > 100 µM (inactive) | > 100 µM (inactive) | – | > 100 µM (inactive) | > 100 µM (inactive) | > 100 µM (inactive) | > 100 µM (inactive) | > 100 µM (inactive) | > 100 µM (inactive) | > 100 µM (inactive) | – | > 100 µM (inactive) | > 100 µM (inactive) | > 100 µM (inactive) | – | > 100 µM (inactive) | > 100 µM (inactive)
COc1ccc(/C=C2\NC(=S)N(/C=C3\C(=O)Oc4ccccc4C3=O)C2=O)cc1OC | > 100 µM (inactive) | 54.5 µM (inactive) | > 100 µM (inactive) | > 100 µM (inactive) | > 100 µM (inactive) | 91 µM (inactive) | > 100 µM (inactive) | > 100 µM (inactive) | > 100 µM (inactive) | > 100 µM (inactive) | 78.3 µM (inactive) | – | > 100 µM (inactive) | > 100 µM (inactive) | > 100 µM (inactive) | > 100 µM (inactive) | > 100 µM (inactive) | > 100 µM (inactive) | > 100 µM (inactive)
O=C(O[C@@H](/C=C/c1ccccc1)P1(=O)N(Cc2ccccc2)[C@@H]2CCCC[C@H]2N1Cc1ccccc1)c1ccccc1 | – | 3.98 µM (inactive) | 3.31 µM (inactive) | 3.44 µM (inactive) | 3.21 µM (inactive) | 3.95 µM (inactive) | 3.15 µM (inactive) | 2.61 µM (inactive) | 3.33 µM (inactive) | 0.0984 µM (active) | 2.79 µM (inactive) | 2.68 µM (inactive) | 1.88 µM (inactive) | 1.99 µM (inactive) | 3.8 µM (inactive) | 3.66 µM (inactive) | 3.66 µM (inactive) | 5.92 µM (inactive) | 7.93 µM (inactive)
CC(C)CNc1nc2ncnc(N)c2[nH]1 | > 100 µM (inactive) | > 100 µM (inactive) | > 100 µM (inactive) | > 100 µM (inactive) | > 100 µM (inactive) | > 100 µM (inactive) | > 100 µM (inactive) | > 100 µM (inactive) | > 100 µM (inactive) | > 100 µM (inactive) | > 100 µM (inactive) | – | > 100 µM (inactive) | > 100 µM (inactive) | > 100 µM (inactive) | > 100 µM (inactive) | > 100 µM (inactive) | > 100 µM (inactive) | > 100 µM (inactive)
CCc1nc2c(n1CC)C(=O)c1ccccc1C2=O | 66.5 µM (inactive) | 91.6 µM (inactive) | 18.8 µM (inactive) | 24.9 µM (inactive) | 44.2 µM (inactive) | 39 µM (inactive) | – | > 10 µM (inactive) | > 10 µM (inactive) | 18.3 µM (inactive) | 24.5 µM (inactive) | 37.4 µM (inactive) | 34.9 µM (inactive) | > 10 µM (inactive) | 28.8 µM (inactive) | 23.7 µM (inactive) | 31.2 µM (inactive) | – | 42.1 µM (inactive)
Cc1cccc(-c2nc3ccc([N+](=O)[O-])cc3c(=O)o2)c1 | 59.8 µM (inactive) | – | 58.5 µM (inactive) | 62.4 µM (inactive) | 44.4 µM (inactive) | 83.8 µM (inactive) | 26.2 µM (inactive) | 42.8 µM (inactive) | > 100 µM (inactive) | 47.5 µM (inactive) | > 100 µM (inactive) | 28.8 µM (inactive) | 68.9 µM (inactive) | > 100 µM (inactive) | 21.1 µM (inactive) | – | 26.1 µM (inactive) | > 100 µM (inactive) | > 100 µM (inactive)
CCSC1=N/C(=C\c2ccco2)C(Cl)=N1 | > 100 µM (inactive) | > 100 µM (inactive) | > 100 µM (inactive) | > 100 µM (inactive) | > 100 µM (inactive) | > 100 µM (inactive) | > 100 µM (inactive) | > 100 µM (inactive) | > 100 µM (inactive) | > 100 µM (inactive) | > 100 µM (inactive) | > 100 µM (inactive) | – | > 100 µM (inactive) | > 100 µM (inactive) | > 100 µM (inactive) | > 100 µM (inactive) | > 100 µM (inactive) | –
COc1ccc(C2CC(c3c(O)ccc4ccccc34)=NN2c2ccc([N+](=O)[O-])cc2[N+](=O)[O-])cc1OC (stereo not drawn) | 30.3 µM (inactive) | 14 µM (inactive) | 11.5 µM (inactive) | 10.6 µM (inactive) | 17.6 µM (inactive) | 18.5 µM (inactive) | 25.9 µM (inactive) | 15.8 µM (inactive) | 28.9 µM (inactive) | 6.25 µM (inactive) | 13 µM (inactive) | – | 16.6 µM (inactive) | 10.1 µM (inactive) | 15.3 µM (inactive) | 32.7 µM (inactive) | 3.66 µM (inactive) | 26.4 µM (inactive) | 28.5 µM (inactive)
O=C1CC(=O)NC(NN2C(=O)CSC2c2ccccc2)=N1 (stereo not drawn) | > 100 µM (inactive) | – | > 100 µM (inactive) | > 100 µM (inactive) | > 100 µM (inactive) | > 100 µM (inactive) | – | > 100 µM (inactive) | > 100 µM (inactive) | > 100 µM (inactive) | > 100 µM (inactive) | > 100 µM (inactive) | > 100 µM (inactive) | > 100 µM (inactive) | > 100 µM (inactive) | > 100 µM (inactive) | > 100 µM (inactive) | > 100 µM (inactive) | > 100 µM (inactive)
COCC1OC(N2C(=O)NC(=O)[C@@H]3C=C4CCCCC4=C[C@@H]32)C(OC)C1OC (stereo partly drawn) | > 100 µM (inactive) | > 100 µM (inactive) | > 100 µM (inactive) | > 100 µM (inactive) | > 100 µM (inactive) | > 100 µM (inactive) | > 100 µM (inactive) | > 100 µM (inactive) | > 100 µM (inactive) | > 100 µM (inactive) | > 100 µM (inactive) | 19.1 µM (inactive) | > 100 µM (inactive) | – | > 100 µM (inactive) | > 100 µM (inactive) | > 100 µM (inactive) | > 100 µM (inactive) | –
CCCCCCCCOC1C(O)C(O)C(O)C(O)C12CO2 (stereo not drawn) | 76.6 µM (inactive) | – | 55.3 µM (inactive) | 49.5 µM (inactive) | 41.9 µM (inactive) | 53.8 µM (inactive) | 48.4 µM (inactive) | 41 µM (inactive) | 32.4 µM (inactive) | 63.2 µM (inactive) | 75.5 µM (inactive) | 48.4 µM (inactive) | – | > 10 µM (inactive) | 83.4 µM (inactive) | – | 40.5 µM (inactive) | 38.3 µM (inactive) | 68.5 µM (inactive)
O=C1Oc2ccccc2C(=O)/C1=C\NC(=S)c1ccncc1 | > 100 µM (inactive) | > 100 µM (inactive) | 94.4 µM (inactive) | > 100 µM (inactive) | > 100 µM (inactive) | 53.3 µM (inactive) | > 100 µM (inactive) | > 100 µM (inactive) | > 100 µM (inactive) | > 100 µM (inactive) | 67.1 µM (inactive) | – | > 100 µM (inactive) | > 100 µM (inactive) | > 100 µM (inactive) | > 100 µM (inactive) | > 100 µM (inactive) | > 100 µM (inactive) | > 100 µM (inactive)
O=C1CCCCC/C1=C\c1cccc(Cl)c1 | > 100 µM (inactive) | 50.9 µM (inactive) | 22.5 µM (inactive) | 38.6 µM (inactive) | 47.2 µM (inactive) | 28.2 µM (inactive) | 41.5 µM (inactive) | 40.2 µM (inactive) | 45.4 µM (inactive) | > 100 µM (inactive) | 46.2 µM (inactive) | 20.4 µM (inactive) | 26.5 µM (inactive) | 25.4 µM (inactive) | 45.9 µM (inactive) | 32.4 µM (inactive) | – | > 100 µM (inactive) | 41.7 µM (inactive)
